Results as given in patent US8143288B2, “Inhibitors of HCV replication” (priority 2005, dated 2012).
pEC50: −log10 of the molar value.

The molecules below were run on HCV 1b-377-neo replicon cells (assay: HCV replicon FRET assay). Conditions: Hepatitis C virus; HCV replicon; read-out: Activity (EC50).
Assay type: cell-based
Excerpt: The HCV replicon cell line was isolated from colonies as described by Lohman, et. al. (Science 1999, 285, 110-113, expressly incorporated by reference in its entirety) and used for all experiments. The HCV replicon has the nucleic acid sequence set forth in EMBL Accession No.: AJ242652, the coding sequence of which is from nt 1801 to 7758.
The coding sequence of the published HCV replicon was synthesized by Operon Technologies, Inc. (Alameda, Calif.), and the fall-length replicon was then assembled in plasmid pGem9zf(+) (Promega, Madison, Wis.) using standard molecular biology techniques. The replicon consists of (i) the HCV 5′ UTR fused to the first 12 amino acids of the capsid protein, (ii) the neomycin phosphotransferase gene (neo), (iii) the IRES from encephalomyocarditis virus (EMCV), and (iv) HCV NS3 to NS5B genes and the HCV 3′ UTR. Plasmid DNAs were linearized with ScaI and RNA transcripts were synthesized in vitro using the T7 MegaScript transcription kit (Ambion, Austin, Tex.) according to manufacturer's directions.
To generate cell lines, 4×10^6 Huh-7 cells (kindly provided by R. Bartenschlager and available from Health Science Research Resources Bank, Japan Health Sciences Foundation) were electroporated (GenePulser System, Bio-Rad) with 10 micrograms(“μg”) of RNA transcript and plated into 100-mm dishes. After 24 hours, selective media containing 1.0 milligrams/milliliter (“mg/mL”) G418 was added and media was changed every 3 to 5 days. […] These cell lines were maintained at 37° C., 5% CO2, 100% relative humidity in DMEM (Cat#11965-084) Gibco-BRL, Rockville, Md., with 10% heat inactivated calf serum (Sigma), 10 mL of 100× penicillin/streptomycin (Cat#15140-122) Gibco-BRL, Rockville, Md., Geneticin (Cat#10131-027) Gibco-BRL, Rockville, Md. at 1 mg/mL. One of the cell lines (deposited as ATCC Accession No. PTA-4583 in the American Type Culture Collection) which had approximately 3,000 copies of HCV replicon RNA/cell was used for development of the assay (HCV 1b-377-neo replicon cells).
To perform the HCV FRET screening assay, 96-well cell culture plates were used. The FRET peptide (Anaspec, Inc., San Jose, Calif.) (Taliani et al., Anal. Biochem. 1996, 240, 60-67, hereby incorporated by reference in its entirety) contains a fluorescence donor, EDANS, near one end of the peptide and an acceptor, DABCYL, near the other end. The fluorescence of the peptide is quenched by […] resonance energy transfer (RET) between the donor and the acceptor, but as the NS3 protease cleaves the peptide the products are released from RET quenching and the fluorescence of the donor becomes apparent.
The assay reagent was made as follows: 5X luciferase cell culture lysis (Cat#E153A, Promega, Madison, Wis.) diluted to 1X with dH2O, NaCl added to […] final, the FRET peptide diluted to 20 micromolar (“μM”) final from a 2 mM stock. HCV 1b-377-neo replicon cells were trypsinized, placed into each well of a 96-well plate and allowed to attach overnight. The next day, the test compounds were added to columns 1 through 10; column 11 was media plus DMSO only, and column 12 contained a titration of interferon or an HCV specific inhibitor as a control (1000 units for A12, B12, 100 units for C12, D12, 10 units for E12, F12 and 1 unit for G12, H12). […] In addition, naïve Huh-7 cells could also be used to replace wells A12 and B12 as a background control.
At subsequent various times (typically 72 hours), 10% final volume Alamar blue (Cat#00-100, Trek Diagnostics, Cleveland, Ohio) was added to each well. The plates were returned to the incubator for 5 hours and then read in the Cytoflour (PE Biosystems) to determine Alamar blue conversion in each well as a measure of cellular toxicity.

Q: CCOC(=O)N1CCC[C@H]1C(=O)Nc1ccc(/C=C/c2ccc(NC(=O)[C@@H]3CCCN3C(=O)OCC)cc2)cc1 [Example 57] was tested. Which pEC50 did it give?
A: 6.00 to 7.00

Q: With O=C(Cc1ccccc1)NCC(=O)Nc1ccc(/C=C/c2ccc(NC(=O)[C@@H]3CCCN3C(=O)Cc3ccccc3)cc2)cc1 [Example 257] as the molecule, how does the pEC50 read?
A: 6.00 to 7.00

Q: With CC(C)(C)O[C@@H]1C[C@@H](C(=O)Nc2ccc(/C=C/c3ccc(NC(=O)[C@@H]4CCCN4C(=O)Cc4ccccc4)cc3)cc2)N(C(=O)OCc2ccccc2)C1 [Example 274] as the molecule, how does the pEC50 read?
A: 7.05 to 10.00

Q: O=C(Nc1ccc(/C=C/c2ccc(NC(=O)[C@@H]3CCCN3C(=O)[C@H](O)c3ccccc3)cc2)cc1)[C@@H]1CCCN1C(=O)[C@H](O)c1ccccc1 [Example 298] was tested. Which pEC50 did it give?
A: 7.05 to 10.00

Q: How did the pEC50 turn out when CCn1nc(C)cc1C(=O)N1CCC[C@H]1C(=O)Nc1ccc(/C=C/c2ccc(NC(=O)[C@@H]3CCCN3C(=O)c3cc(C)nn3CC)cc2)cc1 [Example 155] was run?
A: 7.05 to 10.00

Q: O=C(CC1CC1)Nc1ccc(/C=C/c2ccc(NC(=O)[C@@H]3CCCN3C(=O)[C@H]3CCCO3)cc2)cc1 [Example 261] was tested. Which pEC50 did it give?
A: 5.00 to 6.00

Q: O=C(Nc1ccc(/C=C/c2ccc(NC(=O)[C@@H]3COCN3C(=O)OCc3ccccc3)cc2)cc1)[C@@H]1COCN1C(=O)OCc1ccccc1 [Example 11] was tested. Which pEC50 did it give?
A: 5.00 to 6.00

Q: How did the pEC50 turn out when O=C(Nc1ccc(/C=C/c2ccc(NC(=O)[C@@H]3CCCN3C(=O)c3cccnc3)cc2)cc1)[C@@H]1CCCN1C(=O)c1cccnc1 [Example 59] was run?
A: 6.00 to 7.00

Q: How did the pEC50 turn out when CN(C)[C@H]1C[C@@H](C(=O)Nc2ccc(/C=C/c3ccc(NC(=O)[C@@H]4C[C@H](N(C)C)CN4C(=O)OCc4ccccc4)cc3)cc2)N(C(=O)OCc2ccccc2)C1 [Example 223] was run?
A: 7.05 to 10.00

Q: With [N-]=[N+]=Nc1cccc(CC(=O)N2CCC[C@H]2C(=O)Nc2ccc(/C=C/c3ccc(NC(=O)[C@@H]4CCCN4C(=O)Cc4ccccc4)cc3)cc2)c1 [Example 126] as the molecule, how does the pEC50 read?
A: 7.05 to 10.00

Q: Cc1ccccc1S(=O)(=O)N1CCC[C@H]1C(=O)Nc1ccc(/C=C/c2ccc(NC(=O)[C@@H]3CCCN3S(=O)(=O)c3ccccc3C)cc2)cc1 [Example 282] was tested. Which pEC50 did it give?
A: 5.00 to 6.00

Q: With COc1ccccc1C(=O)N1CCC[C@H]1C(=O)Nc1ccc(/C=C/c2ccc(NC(=O)[C@@H]3CCCN3C(=O)c3ccccc3OC)cc2)cc1 [Example 133] as the molecule, how does the pEC50 read?
A: 5.00 to 6.00

Q: With O=C(Nc1ccc(/C=C/c2ccc(NC(=O)[C@@H]3CCCN3C(=O)C3Cc4ccccc43)cc2)cc1)[C@@H]1CCCN1 (stereo partly shown) [Example 115] as the molecule, how does the pEC50 read?
A: 5.00 to 6.00

Q: How did the pEC50 turn out when Cc1cccc(C(=O)N2CCC[C@H]2C(=O)Nc2ccc(/C=C/c3ccc(NC(=O)[C@@H]4CCCN4)cc3)cc2)n1 [Example 113] was run?
A: 5.00 to 6.00

Q: How did the pEC50 turn out when CCc1ccccc1C(=O)N1CCC[C@H]1C(=O)Nc1ccc(/C=C/c2ccc(NC(=O)[C@@H]3CCCN3C(=O)Cc3cccnc3)cc2)cc1 [Example 143] was run?
A: 6.00 to 7.00

Q: O=C(Nc1ccc(/C=C\c2ccc(NC(=O)[C@@H]3CCCN3C(=O)Cc3ccccc3)cc2)cc1)[C@@H]1CCCN1C(=O)Cc1ccccc1 [Example 5] was tested. Which pEC50 did it give?
A: 7.05 to 10.00

Q: With O=C(Nc1ccc(/C=C/c2ccc(NC(=O)[C@@H]3CCCN3C(=O)Cc3ccccc3)cc2)cc1)C1CC1 [Example 292] as the molecule, how does the pEC50 read?
A: 6.00 to 7.00

Q: How did the pEC50 turn out when O=C(c1ccccc1)c1cccnc1C(=O)N1CCC[C@H]1C(=O)Nc1ccc(/C=C/c2ccc(NC(=O)[C@@H]3CCCN3C(=O)c3ncccc3C(=O)c3ccccc3)cc2)cc1 [Example 174] was run?
A: 6.00 to 7.00

Q: How did the pEC50 turn out when CN(C)[C@H]1C[C@@H](C(=O)Nc2ccc(/C=C/c3ccc(NC(=O)[C@@H]4C[C@H](N(C)C)CN4C(=O)c4ccccc4NCc4ccccc4)cc3)cc2)N(C(=O)c2ccccc2NCc2ccccc2)C1 [Example 229] was run?
A: 5.00 to 6.00

Q: CCC(=O)c1ccccc1C(=O)N1CCC[C@H]1C(=O)Nc1ccc(/C=C/c2ccc(NC(=O)[C@@H]3CCCN3C(=O)c3ccccc3C(=O)CC)cc2)cc1 [Example 136] was tested. Which pEC50 did it give?
A: 5.00 to 6.00

Q: With Cn1cc(C(=O)N2CCC[C@H]2C(=O)Nc2ccc(/C=C/c3ccc(NC(=O)[C@@H]4CCCN4C(=O)c4cn(C)c5ccccc45)cc3)cc2)c2ccccc21 [Example 207] as the molecule, how does the pEC50 read?
A: 6.00 to 7.00

Q: Cc1nnsc1C(=O)N1CCC[C@H]1C(=O)Nc1ccc(/C=C/c2ccc(NC(=O)[C@@H]3CCCN3C(=O)c3snnc3C)cc2)cc1 [Example 199] was tested. Which pEC50 did it give?
A: 7.05 to 10.00

Q: With Cc1cccnc1C(=O)N1CCC[C@H]1C(=O)Nc1ccc(/C=C/c2ccc(NC(=O)[C@@H]3CCCN3C(=O)c3ncccc3C)cc2)cc1 [Example 177] as the molecule, how does the pEC50 read?
A: 5.00 to 6.00

Q: COCCOCC(=O)N1CCC[C@H]1C(=O)Nc1ccc(/C=C/c2ccc(NC(=O)[C@@H]3CCCN3C(=O)COCCOC)cc2)cc1 [Example 27] was tested. Which pEC50 did it give?
A: 6.00 to 7.00

Q: How did the pEC50 turn out when CN(C)c1ccc(C(=O)N2CCC[C@H]2C(=O)Nc2ccc(/C=C/c3ccc(NC(=O)[C@@H]4CCCN4C(=O)c4ccc(N(C)C)cc4)cc3)cc2)cc1 [Example 82] was run?
A: 5.00 to 6.00

Q: How did the pEC50 turn out when Cn1cccc1CC(=O)N1CCC[C@H]1C(=O)Nc1ccc(/C=C/c2ccc(NC(=O)[C@@H]3CCCN3C(=O)Cc3cccn3C)cc2)cc1 [Example 105] was run?
A: 7.05 to 10.00

Q: CC(=O)N1C[C@H](O)C[C@H]1C(=O)Nc1ccc(/C=C/c2ccc(NC(=O)[C@@H]3CCCN3C(=O)Cc3ccccc3)cc2)cc1 [Example 272] was tested. Which pEC50 did it give?
A: 6.00 to 7.00

Q: How did the pEC50 turn out when CSCC(=O)N1CCC[C@H]1C(=O)Nc1ccc(/C=C/c2ccc(NC(=O)[C@@H]3CCCN3C(=O)c3cccnc3)cc2)cc1 [Example 86] was run?
A: 7.05 to 10.00

Q: CC(=O)N1CC=C[C@H]1C(=O)Nc1ccc(/C=C/c2ccc(NC(=O)[C@@H]3C=CCN3C(=O)Cc3ccncc3)cc2)cc1 [Example 220] was tested. Which pEC50 did it give?
A: 5.00 to 6.00

Q: How did the pEC50 turn out when CSc1ncccc1C(=O)N1CCC[C@H]1C(=O)Nc1ccc(/C=C/c2ccc(NC(=O)[C@@H]3CCCN3C(=O)c3cccnc3SC)cc2)cc1 [Example 192] was run?
A: 6.00 to 7.00

Q: With O=C(Nc1ccc(/C=C/c2ccc(NC(=O)[C@@H]3CCCN3C(=O)c3ccccc3NCc3ccccc3)cc2)cc1)[C@@H]1CCCN1C(=O)Cc1cccnc1 [Example 151] as the molecule, how does the pEC50 read?
A: 6.00 to 7.00

Q: With CCc1cc(Br)ccc1S(=O)(=O)N1CCC[C@H]1C(=O)Nc1ccc(/C=C/c2ccc(NC(=O)[C@@H]3CCCN3S(=O)(=O)c3ccc(Br)cc3CC)cc2)cc1 [Example 278] as the molecule, how does the pEC50 read?
A: 5.00 to 6.00

Q: How did the pEC50 turn out when O=C(Nc1ccc(/C=C/c2ccc(NC(=O)[C@@H]3CCCN3C(=O)OCc3ccccc3)cc2)cc1)[C@@H]1CCCN1C(=O)OCc1ccccc1 [Example 2] was run?
A: 7.05 to 10.00

Q: Cc1nc2ccccn2c1C(=O)N1CCC[C@H]1C(=O)Nc1ccc(/C=C/c2ccc(NC(=O)[C@@H]3CCCN3C(=O)c3c(C)nc4ccccn34)cc2)cc1 [Example 187] was tested. Which pEC50 did it give?
A: 7.05 to 10.00

Q: How did the pEC50 turn out when CC(C)C(=O)N1CCC[C@H]1C(=O)Nc1ccc(/C=C/c2ccc(NC(=O)[C@@H]3CCCN3C(=O)c3ccc(N(C)C)cc3)cc2)cc1 [Example 93] was run?
A: 6.00 to 7.00

Q: With O=C(Nc1ccc(/C=C/c2ccc(NC(=O)[C@@H]3CCCN3C(=O)c3ccc(C(F)(F)F)nc3Cl)cc2)cc1)[C@@H]1CCCN1C(=O)c1ccc(C(F)(F)F)nc1Cl [Example 195] as the molecule, how does the pEC50 read?
A: 5.00 to 6.00

Q: O=C(Nc1ccc(/C=C/c2ccc(NC(=O)[C@@H]3CCCN3C(=O)COc3cccc(Cl)c3)cc2)cc1)[C@@H]1CCCN1C(=O)COc1cccc(Cl)c1 [Example 38] was tested. Which pEC50 did it give?
A: 6.00 to 7.00

Q: With Cc1ccsc1C(=O)N1CCC[C@H]1C(=O)Nc1ccc(/C=C/c2ccc(NC(=O)[C@@H]3CCCN3C(=O)c3sccc3C)cc2)cc1 [Example 198] as the molecule, how does the pEC50 read?
A: 6.00 to 7.00

Q: COc1ccc2[nH]c(C)c(CC(=O)N3CCC[C@H]3C(=O)Nc3ccc(/C=C/c4ccc(NC(=O)[C@@H]5CCCN5C(=O)Cc5c(C)[nH]c6ccc(OC)cc56)cc4)cc3)c2c1 [Example 34] was tested. Which pEC50 did it give?
A: 7.05 to 10.00

Q: How did the pEC50 turn out when Cc1cccc(-n2cnc(C(=O)N3CCC[C@H]3C(=O)Nc3ccc(/C=C/c4ccc(NC(=O)[C@@H]5CCCN5C(=O)c5cn(-c6cccc(C)n6)cn5)cc4)cc3)c2)n1 [Example 213] was run?
A: 5.00 to 6.00
